Data on 8 compounds can be found in US3954737A, “Atropisomeric ansa ring compounds” (University of Illinois Foundation, priority 1974, dated 1976).

Assay [1] relates to S. pasteurianum. Description: S. pasteurianum growth inhibition. The format is cell-based. The method, then:
(§1) Assays for inhibition of other bacterial strains were carried out according to standard uniform procedures.

In assay [2] the test system is P. vulgaris. The experiment in a line: P. vulgaris growth inhibition. The class given is cell-based. The method, then:
as §1

In assay [3] the test system is K. pneumoniae. Description: K. pneumoniae growth inhibition. The format is cell-based. The method, then:
as §1

Assay [4] concerns B. cereus. Description: B. cereus growth inhibition. The class given is cell-based. The method, then:
as §1

Assay [5] relates to P. oxalicum. The experiment in a line: P. oxalicum growth inhibition. The class given is cell-based. The method, then:
as §1

Assay [6] has as its system E. coli. Description: E. coli growth inhibition. The format is cell-based. The protocol: as §1
Assay [7] deals with B. subtilis. The experiment in a line: B. subtilis bacterial inhibition, zone of inhibition (paper disc on agar). Particulars: 1/2 inch paper discs, 0.08 ml per disc. The class given is cell-based, B. subtilis UC 564. The protocol: The assay for B. subtilis bacterial inhibition was obtained on plates with B. subtilis UC 564 spores in agar with the following composition per liter:
After autoclaving, 10 ml. of 20 percent glucose was added. The seeding rate was approximately 10^9 spores per liter. Test solutions were applied to 1/2 inch paper discs (Schleicher & Schuell 740E) with 0.08 ml. per disc. Zones of inhibition were recorded.

The target of assay [8] is E.Coli RNA Polymerase (Escherichia coli, UniProt P0A8V2). Description: Bacterial RNA polymerase inhibition. The class given is biochemical. On the set-up: concentration or dose not given beside the values. The following applies: pH 7.9, 30°C, 15 min. The source says: (§2) Tables II, III and IV below respectively set forth activities of representative atropisomeric forms of ansa ring compounds of the invention relative to the "normal" isomeric forms in the following assays: (A) reverse transcriptase (RNA-directed DNA polymerase); (B) bacterial RNA polymerase; (C) B. subtilis bacterial inhibition; (D) S. lutea bacterial inhibition; and, inhibition of numerous other bacterial strains.
Sequence of E.Coli RNA Polymerase (P0A8V2 whole entry): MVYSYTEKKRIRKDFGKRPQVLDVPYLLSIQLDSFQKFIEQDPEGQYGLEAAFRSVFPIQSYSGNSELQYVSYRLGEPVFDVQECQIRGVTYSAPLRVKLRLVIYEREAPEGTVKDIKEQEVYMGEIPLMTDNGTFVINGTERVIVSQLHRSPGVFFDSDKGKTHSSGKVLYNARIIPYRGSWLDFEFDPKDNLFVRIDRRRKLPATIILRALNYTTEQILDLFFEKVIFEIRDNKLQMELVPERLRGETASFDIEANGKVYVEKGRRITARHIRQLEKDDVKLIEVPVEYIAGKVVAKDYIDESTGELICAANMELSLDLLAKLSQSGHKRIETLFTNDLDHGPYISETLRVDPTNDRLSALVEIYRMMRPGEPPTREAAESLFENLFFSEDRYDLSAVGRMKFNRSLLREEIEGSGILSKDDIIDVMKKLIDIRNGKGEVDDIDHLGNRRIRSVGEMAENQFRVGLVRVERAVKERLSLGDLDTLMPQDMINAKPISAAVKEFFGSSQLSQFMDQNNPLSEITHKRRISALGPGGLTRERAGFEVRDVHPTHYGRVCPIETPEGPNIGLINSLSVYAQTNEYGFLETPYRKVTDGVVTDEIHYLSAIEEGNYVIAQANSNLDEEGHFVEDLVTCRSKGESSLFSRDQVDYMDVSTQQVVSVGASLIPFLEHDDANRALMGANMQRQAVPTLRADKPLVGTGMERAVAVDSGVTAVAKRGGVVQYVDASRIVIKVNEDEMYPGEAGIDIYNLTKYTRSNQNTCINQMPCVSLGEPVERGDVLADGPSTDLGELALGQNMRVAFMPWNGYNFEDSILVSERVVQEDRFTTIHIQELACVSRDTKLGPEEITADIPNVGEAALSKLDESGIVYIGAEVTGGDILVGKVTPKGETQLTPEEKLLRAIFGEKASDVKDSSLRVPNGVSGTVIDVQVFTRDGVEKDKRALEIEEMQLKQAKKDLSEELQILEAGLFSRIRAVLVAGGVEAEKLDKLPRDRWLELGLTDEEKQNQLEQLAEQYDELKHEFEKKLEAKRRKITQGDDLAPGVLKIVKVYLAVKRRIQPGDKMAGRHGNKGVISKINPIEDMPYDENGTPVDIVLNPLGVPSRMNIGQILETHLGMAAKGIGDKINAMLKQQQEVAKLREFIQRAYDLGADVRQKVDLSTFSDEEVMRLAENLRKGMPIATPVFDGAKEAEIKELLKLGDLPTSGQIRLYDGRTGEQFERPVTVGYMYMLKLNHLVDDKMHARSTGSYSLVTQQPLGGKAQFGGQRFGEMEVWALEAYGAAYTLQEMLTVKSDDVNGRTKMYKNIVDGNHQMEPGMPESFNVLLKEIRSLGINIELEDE
Sequence of E.Coli RNA Polymerase (P0A8T7 whole entry partner): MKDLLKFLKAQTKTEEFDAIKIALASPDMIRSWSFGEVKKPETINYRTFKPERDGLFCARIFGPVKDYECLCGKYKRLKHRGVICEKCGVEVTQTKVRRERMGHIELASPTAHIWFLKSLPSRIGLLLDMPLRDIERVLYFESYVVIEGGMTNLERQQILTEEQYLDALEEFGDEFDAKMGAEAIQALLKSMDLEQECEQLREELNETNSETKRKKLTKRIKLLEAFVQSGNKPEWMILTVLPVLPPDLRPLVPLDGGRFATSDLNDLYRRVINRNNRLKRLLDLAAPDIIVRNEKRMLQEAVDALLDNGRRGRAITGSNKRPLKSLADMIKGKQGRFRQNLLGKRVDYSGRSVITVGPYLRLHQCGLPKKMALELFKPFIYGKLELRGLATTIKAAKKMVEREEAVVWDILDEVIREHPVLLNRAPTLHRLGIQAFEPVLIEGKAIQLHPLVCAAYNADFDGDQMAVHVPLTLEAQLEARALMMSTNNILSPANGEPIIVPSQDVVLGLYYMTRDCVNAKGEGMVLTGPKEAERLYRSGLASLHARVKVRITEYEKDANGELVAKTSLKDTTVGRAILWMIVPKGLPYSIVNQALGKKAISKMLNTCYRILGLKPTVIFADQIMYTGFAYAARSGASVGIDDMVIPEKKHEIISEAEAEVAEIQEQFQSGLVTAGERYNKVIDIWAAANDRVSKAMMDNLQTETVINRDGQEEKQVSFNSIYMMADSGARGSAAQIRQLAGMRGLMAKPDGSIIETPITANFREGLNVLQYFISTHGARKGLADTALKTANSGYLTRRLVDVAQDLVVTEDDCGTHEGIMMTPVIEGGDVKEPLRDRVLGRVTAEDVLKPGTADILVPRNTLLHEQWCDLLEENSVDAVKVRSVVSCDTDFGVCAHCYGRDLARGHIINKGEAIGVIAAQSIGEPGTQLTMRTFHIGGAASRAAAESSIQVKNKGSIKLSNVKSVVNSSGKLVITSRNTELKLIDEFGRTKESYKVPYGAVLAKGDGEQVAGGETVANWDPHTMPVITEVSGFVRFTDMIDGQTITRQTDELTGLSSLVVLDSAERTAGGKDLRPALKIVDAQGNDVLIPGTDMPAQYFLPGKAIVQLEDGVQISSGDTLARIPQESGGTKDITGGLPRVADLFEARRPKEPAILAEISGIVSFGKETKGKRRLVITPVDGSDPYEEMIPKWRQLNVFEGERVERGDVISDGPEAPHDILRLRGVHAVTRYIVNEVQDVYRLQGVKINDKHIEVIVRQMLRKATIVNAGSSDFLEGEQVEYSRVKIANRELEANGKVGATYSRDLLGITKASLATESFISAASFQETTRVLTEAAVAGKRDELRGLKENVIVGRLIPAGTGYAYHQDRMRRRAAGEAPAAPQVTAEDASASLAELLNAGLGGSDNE
Sequence of E.Coli RNA Polymerase (P0A7Z4 whole entry partner): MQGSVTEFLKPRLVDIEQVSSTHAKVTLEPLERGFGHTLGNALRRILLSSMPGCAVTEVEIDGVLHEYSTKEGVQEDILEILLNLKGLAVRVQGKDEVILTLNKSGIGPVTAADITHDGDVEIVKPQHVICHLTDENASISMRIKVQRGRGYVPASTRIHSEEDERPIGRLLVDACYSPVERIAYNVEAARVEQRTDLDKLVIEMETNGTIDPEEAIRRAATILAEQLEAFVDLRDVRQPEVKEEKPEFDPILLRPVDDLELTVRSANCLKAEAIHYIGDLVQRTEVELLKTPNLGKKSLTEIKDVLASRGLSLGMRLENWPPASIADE
Sequence of E.Coli RNA Polymerase (P0A800 whole entry partner): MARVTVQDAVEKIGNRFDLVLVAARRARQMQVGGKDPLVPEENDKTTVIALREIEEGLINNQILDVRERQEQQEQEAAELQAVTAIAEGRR
The assay for bacterial RNA polymerase followed the procedure of Reusser (J. Bacteriol, 105, 580 (1971)). Assay mixtures were prepared containing in a total volume of 0.25 ml: Tris-hydrochloride buffer, pH 7.9, 5 μmoles; MgCl2, 1 μmole; mercaptoethanol, 3 μmoles; MnCl2, 0.25 μmole; quanosine triphosphate, cytidine triphosphate, uridine triphosphate, 0.1 μmole each; adenosine triphosphate 8-^14 C, 0.1 μmole containing 0.05 μCi; dAT, 0.2 units; polymerase, ~35 μg. The reaction mixtures were incubated at 30°C for 15 min.

Assay [9] relates to P. aeruginosa. The experiment in a line: P. aeruginosa growth inhibition. The class given is cell-based. The protocol: as §1
In assay [10] the test system is Reverse Transcriptase. The experiment in a line: Reverse transcriptase (RNA-directed DNA polymerase) inhibition. The class given is biochemical. On the set-up: concentration or dose not given beside the values.
Excerpt: as §2
The assay and work-up conditions for reverse transcriptase analysis were essentially those described by Brockman, et al., (Nature, 230, 249, (1971)), except for eliminating the phosphate from the washing solution (10 percent trichloroacetic acid).

Assay [11] has as its system M. avium. The experiment in a line: M. avium growth inhibition. The format is cell-based. The method, then:
as §1

The subject of assay [12] is S. schottmuelleri. The experiment in a line: S. schottmuelleri growth inhibition. The format is cell-based. The method, then: as §1
In assay [13] the test system is S. lutea. The experiment in a line: S. lutea bacterial inhibition. The format is cell-based. Particulars: brain heart broth, 37°, 16-18 hours. The method, then:
The assay for S. lutea inhibition was as follows. Water-soluble preparations were dissolved in brain heart infusion broth (Difco) to 1 mg./ml. Water-insoluble preparations were dissolved (or suspended) in dimethylformamide to 10 mg./ml. and diluted with brain heart broth to 1 mg./ml. Two-fold serial dilutions were made with broth starting with 1 mg./ml. with final volumes of 0.1 ml. per dilution. Overnight bacterial cultures were diluted 1:20,000 with brain heart and 0.1 ml. of diluted culture was added to each dilution of antibiotic (final total volume was 0.2 ml.). This was all done in plastic microtest plates (Microtest II Tissue Culture Plate, Bioquest). The plates were incubated at 37° for 16-18 hours and zones of inhibition were recorded.

Assay [14] has as its system S. aureus. The experiment in a line: S. aureus growth inhibition. The format is cell-based. The method, then: as §1

For `COC(=O)C1C(O)C(C)C(O)C(C)/C=C/C=C(\C)C(=O)Nc2c(C)c(OC(C)=O)c3c(c2O)C(=O)C(C)=C2OCOC(=C23)/C(C)=C\C(C)(O)C(O)C(C)C1O` (stereo not shown) [Atropisostreptovaricin C, atropisostreptovaricin C], the “Zone of Inhibition” value in assay [1] was 0 mm; in [2], 0 mm; in assay [3], 0 mm; in [4], 9 mm; in assay [5], 0 mm; in assay [6] it was 0 mm. The “Zone of Inhibition” value in [7] was determined as 14 mm; in assay [9], 0 mm; in assay [11], 20 mm; in assay [12], 0 mm; in assay [13] it was 28 mm; in [14] it was 20 mm. Also, in [8] (Table III), the “E.Coli RNA Polymerase % Inhibition” value worked out at 50%. The “Reverse Transcriptase % Inhibition” value in assay [10] (Table II) was 70%.

As for `COC(=O)[C@@H]1[C@H](O)[C@H](C)[C@H](O)[C@H](C)/C=C\C=C(/C)C(=O)Nc2c(C)c(OC(C)=O)c3c(c2O)C(=O)C(C)=C2OCOC(=C23)/C(C)=C/[C@@](C)(O)[C@H](O)[C@@H](C)[C@H]1O` [Streptovaricin C, streptovaricin C, reference compound], the “Zone of Inhibition” value is reported as 8 mm in assay [2]; 21 mm in assay [3]; 0 mm in assay [5]; 13 mm in [6]; 22 mm in [7]; 15 mm in assay [11]. Also, the “Zone of Inhibition” value in assay [12] amounted to 10 mm; in [13] it was 33 mm; in assay [14], 26 mm. Moreover, in assay [8] (Table III), the “E.Coli RNA Polymerase % Inhibition” value was 78%. Also, the “Reverse Transcriptase % Inhibition” value in assay [10] (Table II) is reported as 31-53%.

As for `CC(=O)Oc1c(C)c2c(O)c3c1C1=C(OCOC1=C(C)C3=O)C(C)=CC(C)(O)C(O)C(C)C(O)C1C(=O)OC(C(C)/C=C\C=C(C)C(=O)N2)C(C)C1O` (stereo not shown) [Streptovaricin Fc, streptovaricin Fc, reference compound], the “Zone of Inhibition” value in [1], in assay [2], in [3], in [4], in assay [5] and in assay [6] was 0 mm throughout. The “Zone of Inhibition” value in assay [7] is on record as 0 mm; in assay [9] it was 0 mm; in assay [11] it was 14 mm; in [12] it was 0 mm; in [13], 0 mm; in assay [14], 0 mm. For the same compound, in [8] (Table III), the “E.Coli RNA Polymerase % Inhibition” value is listed as 0%. Further, the “Reverse Transcriptase % Inhibition” value in assay [10] (Table II) turned out to be 68%.

Regarding “atropisostreptovaricin C triacetate cyclic benzeneboronate”, in assay [8] (Table IIIA), the “E.Coli RNA Polymerase % Inhibition” value came to 23%. Further, in [10] (Table IIA), the “Reverse Transcriptase % Inhibition” value came to 77%.

Take “atropisostreptovaricin C triacetate cyclic bromobenzeneboronate [Atropisostreptovaricin C Triacetate Cyclic p-Bromobenzeneboronate]”: in assay [8] (Table IIIA), the “E.Coli RNA Polymerase % Inhibition” value was determined as 46%. Further, in assay [10] (Table IIA), the “Reverse Transcriptase % Inhibition” value stood at 66%.

Regarding atropisostreptovaricin Fc, the “Zone of Inhibition” value in [1], in [2], in assay [3], in assay [4], in [5] and in [6] was 0 mm each time. Also, the “Zone of Inhibition” value in assay [7], in assay [9], in assay [11], in assay [12], in assay [13] and in assay [14] was 0 mm each time. The “E.Coli RNA Polymerase % Inhibition” value in [8] (Table III) was determined as 0%. Besides, the “Reverse Transcriptase % Inhibition” value in [10] (Table II) is 54%.

As for “streptovaricin C triacetate cyclic benzeneboronate [reference compound]”, the “E.Coli RNA Polymerase % Inhibition” value in [8] (Table IIIA) is 2%. Further, the “Reverse Transcriptase % Inhibition” value in [10] (Table IIA) was determined as 44%.

For the compound “streptovaricin C triacetate cyclic bromobenzeneboronate [reference compound]”, the “E.Coli RNA Polymerase % Inhibition” value in assay [8] (Table IIIA) came to 20%. Moreover, the “Reverse Transcriptase % Inhibition” value in [10] (Table IIA) is given as 57%.
